Read-outs that look alike come from different tables or passages of the source.
What was measured:
[1] = test system: mCherry-ZIKV in human neuronal progenitor cells; assay: microbe, parasite or virus in culture; assay type: cell-based, Zika virus; settings: for AC50 / IC50: Zika virus, Neuronal progenitor cell; for IC50: read-out: NPC (ZIKV Antiviral Assays), IC50
in vitro [2] = settings: African green monkey
[3] = test system: ZIKV-RLuc (Cambodian strain FSS13025); assay: microbe, parasite or virus in culture; assay type: cell-based, Zika virus; settings: Zika virus, Vero, 48 h, read-out: Rluc-ZIKV (ZIKV Antiviral Assays), IC50
[4] = test system: ZIKV-mCherry in 3D-oBRB tissue; assay type: cell-based, Zika virus
[5] = test system: ZIKV-mCherry (Cambodian strain FSS13025); assay: microbe, parasite or virus in culture; assay type: cell-based, Zika virus; settings: for AC50: Zika virus, Vero
[6] = test system: DENV (Dengue virus type 2, strain New Guinea C)
[7] = test system: wild-type ZIKV (Ugandan MR766 strain) in Vero cells; assay: ZIKV cytopathic effect (CPE) inhibition qHTS assay, CellTiter-Glo readout; assay type: cell-based, Zika virus; settings: for AC50 / IC50: Zika virus; for IC50: read-out: ZIKV-infection (CPE, ZIKV Antiviral Assays), IC50
[8] = test system: caspase-3 activity induced by ZIKV in Vero cells; assay: cells; assay type: cell-based; settings: Zika virus, read-out: Caspase 3 (ZIKV Antiviral Assays), IC50
in vitro [9] = settings: human
in vitro [10] = settings: human; remark: listed apart in the source
[11] = test system: ZIKV-mCherry in iPSC-derived RPE monoculture; assay type: cell-based, Zika virus
Vero cells = settings: read-out: Cell toxicity counterscreen Vero, CC50
HepG2 cells = settings: read-out: Cell toxicity counterscreen HepG2, CC50
[12] = read-out: Log AC50 (M) (converted)
[13] = Vero, read-out: Log AC50 (M) (converted)

| Structure (SMILES) | YFV active Yes/No (YFV (YFV 17D)) | CC-v2 (curve class) [1] | Efficacy [1] | Max Resp [1] | IC50 [1] [µM] | IC50 [3] [µM] | ZIKV active Yes/No (ZIKV) | CC-v2 (curve class of the dose response curve) [5] | Efficacy (difference between neutral response and maximum compound response) [5] | Max Resp (difference between neutral response and response at highest compound concentration) [5] | DENV active Yes/No [6] | WHV active Yes/No (WNV (Kern515/WN02)) | CC-v2 (curve class classification of the dose response curve) [7] | Efficacy [7] | AC50 ([7]; Vero) [M] | IC50 ([7]; Vero, 48 h) [µM] | AC50 [7, 13] [M] | IC50 ([8]; Vero, 48 h) [µM] | CC50 at 24 h (in vitro [9]) [µM] | CC50 (in vitro [10]) [µM] | other results |
| --- | --- | --- | --- | --- | --- | --- | --- | --- | --- | --- | --- | --- | --- | --- | --- | --- | --- | --- | --- | --- | --- |
| C=C(C)[C@@]12O[C@@H]1[C@@]1(C)C(=CC2=O)CC[C@@H](OC(C)=O)[C@@H]1C [NCGC00380955-01, 3-Acetyl-13-deoxyphomenone] | Yes | -1.2 | -81.826 | -89.257 | 12.6 | 2.33 | Yes | -1.2 | -59.673 | -100.008 | Yes | Yes | -1.2 | -61.612 | 4.61e-06 | 4.61 | 4.61e-06 | 1.66 |  |  | Activity against YFV (YFV (YFV 17D)): pan-activity against all four screened flaviviruses; SI value YFV (CC50/EC50) (YFV (YFV 17D)): 5; Selectivity Index YFV (CC50/EC50) (YFV (YFV 17D)): 5; Antiviral activity in human NPC [1]: effectively inhibited ZIKV in NPC cells; AC50 [1]: 1.26e-05 M; AC50 [1, 12]: 1.26e-05 M; CC50 (in vitro [2]): > 50 µM; Activity against ZIKV (ZIKV): pan-activity against all four screened flaviviruses; SI value ZIKV (CC50/EC50) (ZIKV): 22; Selectivity Index ZIKV (CC50/EC50) (ZIKV): 22; Retention of barrier function (TEER) [4]: 30%; AC50 [5]: 1.5e-06 M; AC50 [5, 12]: 1.5e-06 M; Activity against DENV [6]: pan-activity against all four screened flaviviruses; SI value DENV (CC50/EC50) [6]: 14; Selectivity Index DENV (CC50/EC50) [6]: 14; Activity against WNV (WNV (Kern515/WN02)): pan-activity against all four screened flaviviruses; SI value WHV (CC50/EC50) (WNV (Kern515/WN02)): 9; Selectivity Index WHV (CC50/EC50) (WNV (Kern515/WN02)): 9 |
| COC(=O)[C@]12CCCC(C)(C)C1CCc1cc(C(C)C)c(O)c(O)c12 (stereo partly drawn) [NCGC00380281-01] | No | 4 | -22.278 | -14.815 | 31.6 | 25.6 | No | -1.4 | -82.117 | -100.29 | No | No |  |  |  |  |  |  | > 30 | > 30 | CC50 at 48 h (in vitro [2]): > 50 µM; AC50 ([7]; Vero, from Hill fit of the response curve, 50% of maximum activity response, 194 cherry-picked compounds, protocol name not given, read-out: AC50): 7.18e-06 M; AC50 ([7]; Vero, potency in log units (Molar) from Hill fit of the response curve, 194 cherry-picked compounds, protocol name not given, read-out: Log AC50 (converted)): 7.18e-06 M; IC50 ([7]; Vero cells, wild-type ZIKV MOI 1, 48 hr, unit inferred): 7.18 µM; Efficacy ([7]; difference between neutral response and maximum compound response): -21.701; IC50 ([8]; ZIKV-infected Vero cells, 48 hr, unit inferred): 12.9 µM |
| CNC(=O)c1cc(Oc2ccc(NC(=O)Nc3cc(C(C)(C)C)nn3-c3ccc4ncccc4c3)c(F)c2)ccn1 [NCGC00263172-09] | No |  | -38.32 | -37.38 | 44.7 | 8.27 | No | -1.2 | -48.4 | -100.305 | No | No | -1.2 | -30.756 | 2.91e-05 | 29.1 | 2.91e-05 | 0.01 | 12.1 | > 30 | AC50 [1]: 4.47e-05 M; AC50 [1, 12]: 4.47e-05 M; CC50 at 48 h (in vitro [2]; Vero cells): > 50 µM; AC50 [5]: 9.46e-07 M; AC50 [5, 12]: 9.46e-07 M |
| O=C(Nc1ccc([N+](=O)[O-])cc1Cl)c1cc(Cl)ccc1O [niclosamide] |  |  |  |  |  |  |  |  |  |  |  |  |  |  |  |  |  |  |  |  | Effect on barrier function [11]: did not recover the barrier function; Effect on barrier function [4]: did not recover the barrier function; Identified as active in CPE assay validation set [7]: identified |
| CCOC(=O)C1=C(C)NC2=C(C(=O)CC(C)(C)C2)C1c1ccc(-c2ccccc2)cc1 (stereo not drawn) [NCGC00347947-06] | No | -2.1 | -93.817 | -85.476 | 35.5 | 14.7 | No | 5 | -39.533 | -99.952 | No | No | -2.2 | -55.111 | 2.06e-05 | 20.6 | 2.06e-05 | 33.1 | > 30 | 22.4 | Antiviral activity in human NPC [1]: moderate antiviral activity; AC50 [1]: 3.55e-05 M; AC50 [1, 12]: 3.55e-05 M; CC50 at 48 h (in vitro [2]): > 50 µM; AC50 [5]: 8.43e-07 M; AC50 [5, 12]: 8.43e-07 M |
| CC1=C[C@H]2O[C@@H]3[C@H](O)[C@@H](O)[C@](C)([C@@]2(CO)C[C@@H]1O)[C@]31CO1 [NCGC00381381-01, T-2 toxin tetraol] |  |  |  |  |  |  |  |  |  |  |  |  |  |  |  |  |  |  |  |  | CC50 (Vero cells): > 50 µM; CC50 (HepG2 cells): > 30 µM |
| COc1ccc2c(c1)C=C1Cn3c-2c(C2CCCCC2)c2ccc(cc23)C(=O)N[S+](=O)([O-])N(C)CCOCCN(C)C1=O [NCGC00482982-02] | No | 4 | -30.77 | -24.808 | 5.01 | 20.8 | No | -1.4 | -60.775 | -100.29 | No | No | -2.2 | -39.12 | 2.59e-05 | 25.9 | 2.59e-05 | 1.66 | > 30 | > 30 | CC50 at 48 h (in vitro [2]; Vero cells): > 50 µM |
| CO[C@@H]1[C@H](N(C)C(=O)c2ccccc2)C[C@H]2O[C@]1(C)n1c3ccccc3c3c4c(c5c6ccccc6n2c5c31)C(=O)NC4 [midostaurin] |  |  |  |  |  |  |  |  |  |  |  |  |  |  |  |  |  |  |  |  | Effect on barrier function [11]: exacerbated the barrier function loss; Retention of barrier function (TEER) [4]: about 40% |
| Cc1[nH]c2ccccc2c1C1=C(NCCc2ccc(F)cc2)C(=O)N(C)C1=O [NCGC00386352-05] | No | -2.2 | -103.895 | -78.246 | 39.8 | 7.37 | Yes | -1.4 | -71.769 | -66.876 | Yes | No | -1.2 | -35.912 | 2.06e-05 | 20.6 | 2.06e-05 | 33.1 | 17.8 | > 30 | Antiviral activity in human NPC [1]: effectively inhibited ZIKV in NPC cells; AC50 [1]: 3.98e-05 M; AC50 [1, 12]: 3.98e-05 M; CC50 at 48 h (in vitro [2]; Vero cells): > 50 µM; Activity against ZIKV (ZIKV): active against both DENV and ZIKV; SI value ZIKV (CC50/EC50) (ZIKV): 23; Selectivity Index ZIKV (CC50/EC50) (ZIKV): 23; Activity against DENV [6]: active against both DENV and ZIKV; SI value DENV (CC50/EC50) [6]: 24; Selectivity Index DENV (CC50/EC50) [6]: 24 |
